Test results published in patent publication US20240158446A1, “CYCLIC COMPOUND HAVING SELECTIVE INHIBITORY ACTION ON KRAS OVER HRAS AND NRAS” (CHUGAI SEIYAKU KABUSHIKI KAISHA, priority 2021, published 2024).
Read-outs that look alike come from different tables or passages of the source. *1 amine or outer side, *2 acyl side, *3 side chain or, on linkers, in order; H or OH if unused. Where a SMILES comes first, the peptide text is derived from it. Bridges are numbered along the chain shown (N, C = ends). [ ]: non-standard residue; d: D form. The star is where a group is joined. hPhe(3-Cl-4-CF3) = N[C@@H](CCc1ccc(C(F)(F)F)c(Cl)c1)C(=O)O; NPrPhe(4-CF3) = CCCN[C@@H](Cc1ccc(C(F)(F)F)cc1)C(=O)O; X18 = Cc1ccc(C[C@@H](C(=O)[*:2])N(CC(C)C)[*:1])cc1; X16 = CCCN([C@@H](Cc1ccc(OC)cc1)C(=O)[*:2])[*:1]; X35 = COCCN([C@@H](Cc1ccc(C)cc1)C(=O)[*:2])[*:1]; NMePhe(4-Me) = CN[C@@H](Cc1ccc(C)cc1)C(=O)O; NMeGly(cPent) = CN[C@H](C(=O)O)C1CCCC1; Pro(4,4-F2) = O=C(O)[C@@H]1CC(F)(F)CN1; NMeD = CN[C@@H](CC(=O)O)C(=O)O; NMeL = CN[C@@H](CC(C)C)C(=O)O; Morpholide = C1CN(*)CCO1; NMeA = CN[C@@H](C)C(=O)O; Ac5c = NC1(C(=O)O)CCCC1; Aze = O=C(O)[C@@H]1CCN1; Ac3c = NC1(C(=O)O)CC1; NEtG = CCNCC(=O)O; Sar = CNCC(=O)O

Tests used:
[1] = target: GDP-bound KRAS wild-type protein (Homo sapiens, UniProt P01116); test: Binding to KRAS by surface plasmon resonance (SPR), Single Cycle Kinetics; settings: GDP-bound KRAS wild-type protein, read-out: KRAS KD
Sequence of GDP-bound KRAS wild-type protein (P01116 whole entry): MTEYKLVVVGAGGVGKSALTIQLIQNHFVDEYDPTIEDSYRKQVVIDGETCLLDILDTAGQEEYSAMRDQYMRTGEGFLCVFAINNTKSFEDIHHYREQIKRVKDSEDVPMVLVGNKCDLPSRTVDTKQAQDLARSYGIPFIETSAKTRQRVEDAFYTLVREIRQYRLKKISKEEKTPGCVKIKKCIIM

[2] = target: GDP-bound NRAS wild-type protein (Homo sapiens, UniProt P01111); test: Binding to NRAS by surface plasmon resonance (SPR), Single Cycle Kinetics; settings: for NRAS/KRAS (ratio of KD value for NRAS to KD value for KRAS) / NRAS/KRAS (ratio of KD value with respect to NRAS to KD value with respect to KRAS): SPR, GDP-bound NRAS wild-type protein vs GDP-bound KRAS wild-type protein
Sequence of GDP-bound NRAS wild-type protein (P01111 whole entry): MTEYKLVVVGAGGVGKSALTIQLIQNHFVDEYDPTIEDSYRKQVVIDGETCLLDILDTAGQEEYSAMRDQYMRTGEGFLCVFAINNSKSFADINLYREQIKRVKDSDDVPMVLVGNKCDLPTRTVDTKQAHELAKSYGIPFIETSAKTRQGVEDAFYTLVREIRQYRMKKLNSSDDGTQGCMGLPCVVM

[3] = target: GDP-bound HRAS wild-type protein (Homo sapiens, UniProt P01112); test: Binding to HRAS by surface plasmon resonance (SPR), Single Cycle Kinetics; settings: for HRAS/KRAS (ratio of KD value for HRAS to KD value for KRAS) / HRAS/KRAS (ratio of KD value with respect to HRAS to KD value with respect to KRAS): SPR, GDP-bound HRAS wild-type protein vs GDP-bound KRAS wild-type protein
Sequence of GDP-bound HRAS wild-type protein (P01112 whole entry): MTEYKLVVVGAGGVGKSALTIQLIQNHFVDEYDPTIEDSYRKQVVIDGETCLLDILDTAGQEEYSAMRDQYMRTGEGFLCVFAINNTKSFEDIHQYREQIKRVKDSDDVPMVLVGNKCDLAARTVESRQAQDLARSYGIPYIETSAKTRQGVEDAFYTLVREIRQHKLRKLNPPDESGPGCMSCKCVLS

[4] = SPR Single Cycle Kinetics, 1:1 binding model

Row | SMILES | Kd [1, 4] [nM] | NRAS/KRAS (ratio of KD value for NRAS to KD value for KRAS) [2] | HRAS/KRAS (ratio of KD value for HRAS to KD value for KRAS) [3] | other results
1 | CCCN1C(=O)CN(C)C(=O)CN(C)C(=O)[C@H]([C@@H](C)CC)NC(=O)[C@H](CC(C)C)N(C)C(=O)C[C@@H](C(=O)N(C)C)NC(=O)[C@H](C2CCCC2)N(C)C(=O)C2(CCCC2)NC(=O)[C@@H]2CC(F)(F)CN2C(=O)[C@H](CCc2ccc(C(F)(F)F)c(Cl)c2)NC(=O)CN(C)C(=O)[C@@H]1Cc1ccc(C(F)(F)F)cc1 [PP0357] ([NMeL]I[Sar][Sar][NPrPhe(4-CF3)][Sar][hPhe(3-Cl-4-CF3)][Pro(4,4-F2)][Ac5c][NMeGly(cPent)]D-NMe2; lactam N-11) | 0.4 | B (a compound having 3 or more and less than 10 is denoted as B) | B (a compound having 3 or more and less than 10 is denoted as B) | –
2 | CC[C@H](C)[C@@H]1NC(=O)[C@H](CC)N(C)C(=O)C[C@@H](C(=O)N(C)C)N(C)C(=O)[C@H](C2CCCC2)N(C)C(=O)C2(CCC2)NC(=O)[C@@H]2CCCCN2C(=O)[C@H](CCc2cc(F)c(C(F)(F)F)c(F)c2)NC(=O)CN(C)C(=O)[C@H](Cc2ccc(C(F)(F)F)cc2)N2CCCCC[C@@H](C2=O)N(C)C(=O)CN(C)C1=O [PP0655] | 1.9 | – | – | NRAS/KRAS (ratio of KD value with respect to NRAS to KD value with respect to KRAS) [2]: B (a compound having 3 or more and less than 10 is denoted as B); HRAS/KRAS (ratio of KD value with respect to HRAS to KD value with respect to KRAS) [3]: B (a compound having 3 or more and less than 10 is denoted as B)
3 | CC[C@H](C)[C@@H]1NC(=O)[C@H](COC)N(C)C(=O)C[C@@H](C(=O)N2CCOCC2)N(C)C(=O)[C@H](C2CCCC2)N(C)C(=O)C2(CCCC2)NC(=O)[C@@H]2CCCN2C(=O)[C@H](CCc2cc(F)c(C(F)(F)F)c(F)c2)NC(=O)CN(C)C(=O)[C@H](Cc2ccc(C(F)(F)F)cc2)N2CCCCC[C@@H](C2=O)N(C)C(=O)CN(C)C1=O [PP0845] | – | B (a compound having 3 or more and less than 10 is denoted as B) | B (a compound having 3 or more and less than 10 is denoted as B) | Kd ([1]; SPR, Single Cycle Kinetics): 2.2 nM
4 | CCCN1C(=O)CN(C)C(=O)CN(C)C(=O)[C@H]([C@@H](C)CC)NC(=O)[C@H](CC(C)C)N(C)C(=O)C[C@@H](C(=O)N2CCOCC2)N(C)C(=O)[C@H](C2CCCC2)N(C)C(=O)C2(CC2)NC(=O)[C@@H]2CCCN2C(=O)[C@H](CCc2ccc(C(F)(F)F)c(Cl)c2)NC(=O)CN(C)C(=O)[C@@H]1Cc1ccc(C(F)(F)F)cc1 [PP0229] ([NMeL]I[Sar][Sar][NPrPhe(4-CF3)][Sar][hPhe(3-Cl-4-CF3)]P[Ac3c][NMeGly(cPent)][NMeD]-Morpholide; lactam N-11) | 0.25 | B (a compound having 3 or more and less than 10 is denoted as B) | B (a compound having 3 or more and less than 10 is denoted as B) | –
5 | CC[C@H](C)[C@@H]1NC(=O)[C@@H]2CCC/C=C/c3ccc(cc3)C[C@@H](C(=O)N(C)CC(=O)N[C@@H](CCc3ccc(Cl)c(Cl)c3)C(=O)N3C[C@H](OC(C)C)C[C@H]3C(=O)NC3(CC(C)(C)C3)C(=O)N(C)[C@@H](C3CCCC3)C(=O)N(C)[C@H](C(=O)N3CCCC3)CC(=O)N2C)N2CC/C=C\C[C@@H](C2=O)N(C)C(=O)CN(C)C1=O [PP2596] | 0.16 | – | – | NRAS/KRAS (ratio of KD value with respect to GDP-bound NRAS wild-type protein to KD value with respect to KRAS) ([2]; SPR KD ratio NRAS/KRAS, class symbols): A (a compound having 10 or more and less than 20 is denoted as A); HRAS/KRAS (ratio of KD value with respect to GDP-bound HRAS wild-type protein to KD value with respect to KRAS) ([3]; SPR KD ratio HRAS/KRAS, class symbols): A (a compound having 10 or more and less than 20 is denoted as A)
6 | CC[C@H](C)[C@@H]1NC(=O)[C@H](CC(C)C)N(C)C(=O)C[C@@H](C(=O)N2CCOCC2)N(C)C(=O)[C@H](C2CCCC2)N(C)C(=O)C2(CCCC2)NC(=O)[C@@H]2CCCN2C(=O)[C@H](CCc2ccc(C(F)(F)F)c(Cl)c2)NC(=O)CN(C)C(=O)[C@H](Cc2ccc(C)cc2)N(CC(C)C)C(=O)[C@@H]2CCN2C(=O)[C@H](C)N(C)C1=O [PP0056] ([NMeL]I[NMeA][Aze][X18][Sar][hPhe(3-Cl-4-CF3)]P[Ac5c][NMeGly(cPent)][NMeD]-Morpholide; lactam N-11) | 2.9 | C (A compound having a KD ratio of 0.1 or more and less than 3 is denoted as C) | B (a compound having 3 or more and less than 10 is denoted as B) | –
7 | CCCN1C(=O)CN(C)C(=O)[C@@H]2CCN2C(=O)[C@H]([C@@H](C)CC)NC(=O)[C@H](CC(C)C)N(C)C(=O)C[C@@H](C(=O)N2CCOCC2)N(C)C(=O)[C@H](C2CCCC2)N(C)C(=O)C2(CCCC2)NC(=O)CN(C)C(=O)[C@H](CCc2ccc(C(F)(F)F)c(Cl)c2)NC(=O)CN(C)C(=O)[C@@H]1Cc1ccc(C(F)(F)F)cc1 [PP0314] ([NMeL]I[Aze][Sar][NPrPhe(4-CF3)][Sar][hPhe(3-Cl-4-CF3)][Sar][Ac5c][NMeGly(cPent)][NMeD]-Morpholide; lactam N-11) | 1.6 | B (a compound having 3 or more and less than 10 is denoted as B) | C (A compound having a KD ratio of 0.1 or more and less than 3 is denoted as C) | –
8 | CC[C@H](C)[C@@H]1NC(=O)[C@H](CC(C)C)N(C)C(=O)C[C@@H](C(=O)N2CCOCC2)N(C)C(=O)[C@H](C2CCCC2)N(C)C(=O)C2(CCCCC2)NC(=O)[C@@H]2CCCN2C(=O)[C@H](CCc2cc(F)c(C(F)(F)F)c(F)c2)NC(=O)CN(C)C(=O)[C@H](Cc2ccc(C(F)(F)F)cc2)N2CCCC[C@@H](C2=O)N(C)C(=O)CN(C)C1=O [PP0561] | 0.31 | – | – | NRAS/KRAS (ratio of KD value with respect to NRAS to KD value with respect to KRAS) [2]: B (a compound having 3 or more and less than 10 is denoted as B); HRAS/KRAS (ratio of KD value with respect to HRAS to KD value with respect to KRAS) [3]: B (a compound having 3 or more and less than 10 is denoted as B)
9 | CC[C@H](C)[C@@H]1NC(=O)[C@H](CC2CC2)N(C)C(=O)C[C@@H](C(=O)N(C)C)N(C)C(=O)[C@H](C2CCCC2)N(C)C(=O)C2(CC(C)(C)C2)NC(=O)[C@@H]2C[C@@H](F)CN2C(=O)[C@H](CCc2cc(F)c(C(F)(F)F)c(F)c2)NC(=O)CN(C)C(=O)[C@H](Cc2ccc(C(F)(F)F)cc2)N2CC/C=C\C[C@@H](C2=O)N(C)C(=O)CN(C)C1=O [PP1501, (2S,8S,12R,14S,20S,23S,27S,30S,36S,38Z)-20-cyclopentyl-27-(cyclopropylmethyl)-8-[2-[3,5-difluoro-4-(trifluoromethyl)phenyl]ethyl]-12-fluoro-N,N,3′,3′,4,19,22,26,32,35-decamethyl-30-[(1S)-1-methylpropyl]-3,6,9,15,18,21,25,28,31,34,42-undecaoxo-2-[[4-(trifluoromethyl)phenyl]methyl]spiro[1,4,7,10,16,19,22,26,29,32,35-undecazatricyclo[34.5.1.0^10,14]dotetracont-38-ene-17,1′-cyclobutane]-23-carboxamide] | – | – | – | Kd ([1]; SPR, Single Cycle Kinetics, 1:1 binding model): 0.024 nM; NRAS/KRAS (ratio of KD value for NRAS to KD value for KRAS) ([2]; KD ratio class): A (a compound having 10 or more and less than 20 is denoted as A); HRAS/KRAS (ratio of KD value for HRAS to KD value for KRAS) ([3]; KD ratio class): A (a compound having 10 or more and less than 20 is denoted as A)
10 | CC[C@H](C)[C@@H]1NC(=O)[C@H](CC(C)C)N(C)C(=O)C[C@@H](C(=O)N2CCOCC2)N(C)C(=O)[C@H](C2CCCC2)N(C)C(=O)C2(CCCC2)NC(=O)[C@@H]2CCCN2C(=O)[C@H](CCc2ccc(C(F)(F)F)c(Cl)c2)NC(=O)CN(C)C(=O)[C@H](Cc2ccc(C)cc2)N(CCOC)C(=O)CN(C)C(=O)CN(C)C1=O [PP0104] ([NMeL]I[Sar][Sar][X35][Sar][hPhe(3-Cl-4-CF3)]P[Ac5c][NMeGly(cPent)][NMeD]-Morpholide; lactam N-11) | 0.25 | B (a compound having 3 or more and less than 10 is denoted as B) | C (A compound having a KD ratio of 0.1 or more and less than 3 is denoted as C) | –
11 | CC[C@H](C)[C@@H]1NC(=O)[C@H](CC(C)C)N(C)C(=O)C[C@@H](C(=O)N2CCOCC2)N(C)C(=O)[C@H](C2CCCC2)N(C)C(=O)C2(CCCC2)NC(=O)[C@@H]2CCCN2C(=O)[C@H](CCc2ccc(C(F)(F)F)c(Cl)c2)NC(=O)CN(CC)C(=O)[C@H](Cc2ccc(C)cc2)N(C)C(=O)CN(C)C(=O)CN(C)C1=O [PP0025] ([NMeL]I[Sar][Sar][NMePhe(4-Me)][NEtG][hPhe(3-Cl-4-CF3)]P[Ac5c][NMeGly(cPent)][NMeD]-Morpholide; lactam N-11) | 2.4 | C (A compound having a KD ratio of 0.1 or more and less than 3 is denoted as C) | C (A compound having a KD ratio of 0.1 or more and less than 3 is denoted as C) | –
12 | CCCN1C(=O)CN(C)C(=O)CN(C)C(=O)[C@H]([C@@H](C)CC)NC(=O)[C@H](CC(C)C)N(C)C(=O)C[C@@H](C(=O)N2CCOCC2)N(C)C(=O)[C@H](C2CCCC2)N(C)C(=O)C2(CCCC2)NC(=O)[C@@H]2CCCN2C(=O)[C@H](CCc2ccc(C(F)(F)F)c(Cl)c2)NC(=O)CN(C)C(=O)[C@@H]1Cc1ccc(OC)cc1 [PP0135] ([NMeL]I[Sar][Sar][X16][Sar][hPhe(3-Cl-4-CF3)]P[Ac5c][NMeGly(cPent)][NMeD]-Morpholide; lactam N-11) | 0.75 | B (a compound having 3 or more and less than 10 is denoted as B) | C (A compound having a KD ratio of 0.1 or more and less than 3 is denoted as C) | –
